Assay results: patent publication US4959368A, “Therapeutic agent for neurological diseases” (Mitsui Petrochemical Industries Ltd., priority 1986, dated 1990)

Tested on: mouse neuroblastoma cell line neuro-2a
Experiment: Activity on neuro-2a, cells with outgrown neurites
Format: cell-based
Protocol: In order to examine the effects of the test compounds, the following method was also employed.
Mouse neuro 2a cells in the logarithmic growth period in the Dulbecco's modified Eagle's medium (DMEM) containing 10% FCS was seeded in a 48-well plate so that the number of cells was 1,000 cells/well, and cultured for one day in 0.25 ml of the culture fluid in each well. The culture medium was then replaced by a medium containing each of the test compounds and FCS, and the cells were further cultured for 24 hours. Then, a 4% aqueous glutaraldehyde solution in the same amount as the medium (0.25 ml) was added, and the culture fluid was left to stand at room temperature for 2 hours to fix the cells. After washing with water, a 0.05% aqueous solution of methylene blue was added to stain the cells. Under a microscope, the number of cells containing outgrown neurites (cells having at least one neutrite with a length at least two times as large as the long diameter of the cell) was counted visually, and the proportion of these cells in the entire cells was calculated. The well was observed over 5 or more visual fields (at least 2% of the entire surface area of the well) continuous to the left and right from a mark put at the center of the well, and more than 200 cells was counted. One drug compound was used in 6 different concentrations at most, and three runs were conducted for each concentration.

[1] = Table 3 Run No. 2, 0.3 mM, control 1.9 ± 0.9
[2] = Table 3 Run No. 2, 1 mM, control 1.9 ± 0.9
[3] = Table 3 Run No. 9, 0.1 mM, control 2.0 ± 1.0
[4] = Table 3 Run No. 4, 0.3 mM, control 3.1 ± 0.2
[5] = Table 3 Run No. 4, 1 mM, control 3.1 ± 0.2
[6] = Table 3 Run No. 8, 0.3 mM, control 3.7 ± 0.4
[7] = Table 3 Run No. 8, 0.5 mM, control 3.7 ± 0.4
[8] = Table 3 Run No. 8, 1 mM, control 3.7 ± 0.4
[9] = Table 3 Run No. 4, 0.1 mM, control 3.1 ± 0.2
[10] = Table 3 Run No. 9, 3 mM, control 2.0 ± 1.0
[11] = Table 3 Run No. 10, 0.1 mM, control 1.7 ± 0.7
[12] = Table 3 Run No. 6, 0.1 mM, control 4.4 ± 0.9
[13] = Table 3 Run No. 9, 1 mM, control 2.0 ± 1.0

For `CCN(CC)C(=O)c1cnc(N2CCNCC2)nc1NC(C)C` [Compound 108], the “Cells having neurites with a length at least twice the long diameter of cell/total number of cells” value [1] was 4.6 ± 1.2% and the “Cells having neurites with a length at least twice the long diameter of cell/total number of cells” value [2] was 6.9 ± 1.6%.

With `CN1C(=O)Cc2cnc(N3CCN(Cc4ccccc4)CC3)nc21` [Compound 434, 2-(4-Benzylpiperazino)-5,6-dihydro-7-methyl-6-oxo(7H)pyrrolo[2,3-d]pyrimidine 2-naphthalenesulfonate] the “Cells having neurites with a length at least twice the long diameter of cell/total number of cells” value [3] was 6.0 ± 1.2%.

In the case of `Cn1ccc2nc(N3CCNCC3)ncc2c1=O` [Compound 707], the “Cells having neurites with a length at least twice the long diameter of cell/total number of cells” value (Table 3 Run No. 7, 0.3 mM, control 2.5 ± 0.7) is reported as 7.3 ± 1.0%, the “Cells having neurites with a length at least twice the long diameter of cell/total number of cells” value (Table 3 Run No. 7, 0.5 mM, control 2.5 ± 0.7) is reported as 10.5 ± 1.5% and the “Cells having neurites with a length at least twice the long diameter of cell/total number of cells” value (Table 3 Run No. 7, 1 mM, control 2.5 ± 0.7) is reported as 21.4 ± 1.7%. For the same molecule, the “Cells having neurites with a length at least twice the long diameter of cell/total number of cells” value (Table 3 second Run No. 5, 0.01 mM, control 4.5 ± 0.3) was 6.1 ± 0.5% and the “Cells having neurites with a length at least twice the long diameter of cell/total number of cells” value (Table 3 second Run No. 5, 1 mM, control 4.5 ± 0.3) was 36.1 ± 3.7%.

In the case of `CN1C(=O)Cc2cnc(N3CCNCC3)nc21` [Compound 412], the “Cells having neurites with a length at least twice the long diameter of cell/total number of cells” value (Table 3 Run No. 3, 0.3 mM, control 3.9 ± 0.3) is reported as 16.6 ± 2.6%, the “Cells having neurites with a length at least twice the long diameter of cell/total number of cells” value (Table 3 Run No. 3, 1 mM, control 3.9 ± 0.3) is reported as 44.2 ± 1.4% and the “Cells having neurites with a length at least twice the long diameter of cell/total number of cells” value [4] is reported as 15.8 ± 2.3%. The “Cells having neurites with a length at least twice the long diameter of cell/total number of cells” value (Table 3 Run No. 4, 0.5 mM, control 3.1 ± 0.2) was 27.9 ± 2.9%, the “Cells having neurites with a length at least twice the long diameter of cell/total number of cells” value [5] was 47.8 ± 0.4% and the “Cells having neurites with a length at least twice the long diameter of cell/total number of cells” value [6] was 18.4 ± 0.5%. For the same molecule, the “Cells having neurites with a length at least twice the long diameter of cell/total number of cells” value [7] was 49.5 ± 3.5% and the “Cells having neurites with a length at least twice the long diameter of cell/total number of cells” value [8] was 32.6 ± 1.3%.

`CC1Cc2nc(N3CCNCC3)ncc2C(=O)O1.Cl` (stereo not shown) [Compound 918, 7,8-Dihydro-7-methyl-5-oxo-2-piperazino(5H)pyrano[4,3-d]pyrimidine hydrochloride] was tested, and the “Cells having neurites with a length at least twice the long diameter of cell/total number of cells” value [9] was 7.4 ± 2.5% and the “Cells having neurites with a length at least twice the long diameter of cell/total number of cells” value [5] was 12.5 ± 0.9%.

`CCOC(=O)N1CCN(c2ncc3c(n2)N(C)C(=O)C3)CC1` [Compound 442] was tested, and the “Cells having neurites with a length at least twice the long diameter of cell/total number of cells” value (Table 3 Run No. 2, 0.1 mM, control 1.9 ± 0.9) was 5.7 ± 0.5%, the “Cells having neurites with a length at least twice the long diameter of cell/total number of cells” value [1] was 7.1 ± 2.6% and the “Cells having neurites with a length at least twice the long diameter of cell/total number of cells” value [2] was 9.1 ± 0.8%. The “Cells having neurites with a length at least twice the long diameter of cell/total number of cells” value [10] was 13.8 ± 1.2%.

`CCCC(C)N1Cc2nc(N3CCNCC3)ncc2C1=O` (stereo not shown) [Compound 646] was tested, and the “Cells having neurites with a length at least twice the long diameter of cell/total number of cells” value [11] was 7.3 ± 0.2%.

For `CN1C(=O)Cc2cnc(N3CCNCC3)nc21` [Compound 416], the “Cells having neurites with a length at least twice the long diameter of cell/total number of cells” value (Table 3 Run No. 8, 0.1 mM, control 3.7 ± 0.4) was 11.7 ± 3.3%, the “Cells having neurites with a length at least twice the long diameter of cell/total number of cells” value [6] was 40.4 ± 9.2% and the “Cells having neurites with a length at least twice the long diameter of cell/total number of cells” value [7] was 48.7 ± 5.7%.

For `Cc1nc(N2CCNCC2)nc2c1CC(=O)N2C` [Compound 464, 5,6-Dihydro-4,7-dimethyl-6-oxo-2-piperazino(7H)pyrrolo[2,3-d]pyrimidine], the “Cells having neurites with a length at least twice the long diameter of cell/total number of cells” value [9] was 7.1 ± 1.6%, the “Cells having neurites with a length at least twice the long diameter of cell/total number of cells” value [4] was 10.1 ± 1.9% and the “Cells having neurites with a length at least twice the long diameter of cell/total number of cells” value [5] was 13.1 ± 1.1%.

For `Cl.c1nc(N2CCNCC2)nc2c1CCC2` [Compound 202, 6,7-Dihydro-2-piperazino(5H)cyclopentapyrimidine hydrochloride], the “Cells having neurites with a length at least twice the long diameter of cell/total number of cells” value [12] was 5.6 ± 1.1%.

`CN1C(=O)Cc2cnc(N3CCNCC3)nc21` [Compound 420] was tested, and the “Cells having neurites with a length at least twice the long diameter of cell/total number of cells” value [6] was 16.5 ± 2.1%, the “Cells having neurites with a length at least twice the long diameter of cell/total number of cells” value [7] was 30.6 ± 5.0% and the “Cells having neurites with a length at least twice the long diameter of cell/total number of cells” value [8] was 47.5 ± 0.6%.

With `CNc1nc(N2CCNCC2)ncc1CCO` [Compound 140, 2-Piperazino-5-(2-hydroxyethyl)-4-methylaminopyrimidine 2-naphthalenesulfonate] the “Cells having neurites with a length at least twice the long diameter of cell/total number of cells” value (Table 3 Run No. 9, 0.03 mM, control 2.0 ± 1.0) was 3.7 ± 1.4%.

With `CCC(C)N1Cc2nc(N3CCNCC3)ncc2C1=O` (stereo not shown) [Compound 638] the “Cells having neurites with a length at least twice the long diameter of cell/total number of cells” value [3] was 6.5 ± 0.2%.

In the case of `CN1C(=O)Cc2cnc(N3CCNCC3)nc21` [Compound 414], the “Cells having neurites with a length at least twice the long diameter of cell/total number of cells” value [6] is reported as 15.0 ± 4.0%, the “Cells having neurites with a length at least twice the long diameter of cell/total number of cells” value [7] is reported as 33.4 ± 2.6% and the “Cells having neurites with a length at least twice the long diameter of cell/total number of cells” value [8] is reported as 43.6 ± 7.8%.

`CCOC(=O)CC1C(=O)N(C)c2nc(N3CCNCC3)ncc21` (stereo not shown) [Compound 674] was tested, and the “Cells having neurites with a length at least twice the long diameter of cell/total number of cells” value (Table 3 Run No. 11, 0.03 mM, control 2.5 ± 0.6) was 4.2 ± 0.8%, the “Cells having neurites with a length at least twice the long diameter of cell/total number of cells” value (Table 3 Run No. 11, 0.1 mM, control 2.5 ± 0.6) was 6.7 ± 1.3% and the “Cells having neurites with a length at least twice the long diameter of cell/total number of cells” value (Table 3 Run No. 11, 0.3 mM, control 2.5 ± 0.6) was 4.5 ± 1.9%.

In the case of `CCCN(CCC)C(=O)c1cnc(N2CCNCC2)nc1NCC` [Compound 104], the “Cells having neurites with a length at least twice the long diameter of cell/total number of cells” value [1] is reported as 10.6 ± 4.6% and the “Cells having neurites with a length at least twice the long diameter of cell/total number of cells” value [2] is reported as 5.3 ± 1.8%.

For `CN1C(=O)Cc2cnc(N3CCNCC3)nc21.O=P(O)(O)O` [Compound 418, 5,6-Dihydro-7-methyl-6-oxo-2-piperazino(7H)pyrrolo[2,3-d]pyrimidine phosphate], the “Cells having neurites with a length at least twice the long diameter of cell/total number of cells” value [6] was 16.6 ± 1.1%, the “Cells having neurites with a length at least twice the long diameter of cell/total number of cells” value [7] was 29.6 ± 3.3% and the “Cells having neurites with a length at least twice the long diameter of cell/total number of cells” value [8] was 47.4 ± 1.6%.

In the case of `CCN(CC)C(=O)c1cnc(N2CCNCC2)nc1OC` [Compound 112], the “Cells having neurites with a length at least twice the long diameter of cell/total number of cells” value [2] is reported as 3.5 ± 0.5%.

For `CC(=O)N1CCN(c2ncc3c(n2)N(C)C(=O)C3)CC1` [Compound 440, 2-(4-Acetylpiperazino)-5,6-dihydro-7-methyl-6-oxo(7H)pyrrolo[2,3-d]pyrimidine], the “Cells having neurites with a length at least twice the long diameter of cell/total number of cells” value [13] was 5.8 ± 1.0% and the “Cells having neurites with a length at least twice the long diameter of cell/total number of cells” value [10] was 12.9 ± 4.1%.

With `CC1C(=O)N(C)c2nc(N3CCNCC3)ncc21.O=C(O)/C=C\C(=O)O` (stereo not shown) [Compound 446, 5,6-Dihydro-5,7-dimethyl-6-oxo-2-piperazino(7H)pyrrolo[2,3-d]pyrimidine maleate] the “Cells having neurites with a length at least twice the long diameter of cell/total number of cells” value (Table 3 Run No. 9, 0.5 mM, control 2.0 ± 1.0) was 6.3 ± 0.4% and the “Cells having neurites with a length at least twice the long diameter of cell/total number of cells” value [13] was 9.2 ± 2.0%.

With `Cc1cc2c(C)nc(N3CCNCC3)nc2o1.Cl` [Compound 906, 4,6-Dimethyl-2-piperazinofuro[2,3-d]pyrimidine hydrochloride] the “Cells having neurites with a length at least twice the long diameter of cell/total number of cells” value [12] was 7.4 ± 1.0% and the “Cells having neurites with a length at least twice the long diameter of cell/total number of cells” value (Table 3 Run No. 6, 0.3 mM, control 4.4 ± 0.9) was 7.0 ± 0.6%.

`CC(C)(C)N1Cc2nc(N3CCNCC3)ncc2C1=O` [Compound 642] was tested, and the “Cells having neurites with a length at least twice the long diameter of cell/total number of cells” value [3] was 9.5 ± 1.2% and the “Cells having neurites with a length at least twice the long diameter of cell/total number of cells” value (Table 3 Run No. 9, 0.3 mM, control 2.0 ± 1.0) was 14.4 ± 4.0%.

With `COC(=O)c1cnc(N2CCNCC2)nc1NC(C)C` [Compound 116] the “Cells having neurites with a length at least twice the long diameter of cell/total number of cells” value (Table 3 Run No. 10, 0.01 mM, control 1.7 ± 0.7) was 7.5 ± 2.2%, the “Cells having neurites with a length at least twice the long diameter of cell/total number of cells” value (Table 3 Run No. 10, 0.03 mM, control 1.7 ± 0.7) was 11.6 ± 2.0% and the “Cells having neurites with a length at least twice the long diameter of cell/total number of cells” value [11] was 10.6 ± 4.5%.

`NC(=O)CN1Cc2nc(N3CCNCC3)ncc2C1=O` [Compound 652] was tested, and the “Cells having neurites with a length at least twice the long diameter of cell/total number of cells” value [2] was 4.5 ± 0.3%.

In the case of `CN1CCc2cnc(N3CCNCC3)nc21` [Compound 914, 5,6-Dihydro-7-methyl-2-piperazino(7H)pyrrolo[2,3-d]pyrimidine naphthalene-2-sulfonate], the “Cells having neurites with a length at least twice the long diameter of cell/total number of cells” value [11] is reported as 4.9 ± 0.9% and the “Cells having neurites with a length at least twice the long diameter of cell/total number of cells” value (Table 3 Run No. 10, 0.3 mM, control 1.7 ± 0.7) is reported as 4.6 ± 0.8%.

In the case of `CN1C(=O)Cc2cnc(N3CCNCC3)nc21` [Compound 410], the “Cells having neurites with a length at least twice the long diameter of cell/total number of cells” value [6] is reported as 22.4 ± 2.9%, the “Cells having neurites with a length at least twice the long diameter of cell/total number of cells” value [7] is reported as 36.7 ± 6.1% and the “Cells having neurites with a length at least twice the long diameter of cell/total number of cells” value [8] is reported as 15.5 ± 0.3%.
